How the values were obtained:
Conditions in all cases: incubation time: 72 h
[1] = system: CAL-85-1; assay: normalised viability (% of control), CellTiter-Blue; higher = more viable cells (100 = DMSO, 0 = benzethonium chloride kill control)
Protocol: (§1)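 DSRT, CellTiter-Blue viability, 72 h incubation. Signal is normalised to DMSO and benzethonium chloride controls. Value is the normalised response at dose 1.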

[2] = system: SK-BR-3; assay: as above
Protocol: as §1

[3] = system: HCC1937; assay: as above
Protocol: as §1

[4] = system: DU-4475; assay: as above
Protocol: as §1

[5] = system: MDA-MB-468; assay: as above
Protocol: as §1

[6] = system: Hs578T; assay: as above
Protocol: as §1

[7] = system: MDA-MB-453; assay: as above
Protocol: as §1

[8] = system: BT-549; assay: as above
Protocol: as §1

[9] = system: MDA-MB-231; assay: as above
Protocol: as §1

[10] = system: BT-474; assay: as above
Protocol: as §1

[11] = system: HDQ-P1; assay: as above
Protocol: as §1

[12] = system: CAL-51; assay: as above
Protocol: as §1

[13] = system: HCC1599; assay: as above
Protocol: as §1

[14] = system: MDA-MB-436; assay: as above
Protocol: as §1

[15] = system: CAL-148; assay: as above
Protocol: as §1

[16] = system: HCC1143; assay: as above
Protocol: as §1

[17] = system: MFM-223; assay: as above
Protocol: as §1

[18] = system: CAL-120; assay: as above
Protocol: as §1

[19] = system: CAL-85-1; assay: normalised response (% of control), CellTiter-Glo; higher = more viable cells (100 = DMSO, 0 = benzethonium chloride kill control)
In short: (§2)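 CellTox Green fluorescence (485/520 nm) and, after 10 min at room temperature, CellTiter-Glo luminescence were read from breast cancer cell lines incubated 72 h in 384-well plates. Cells were seeded as 20 µl suspension onto compound at 5 concentrations in 10-fold steps over a 10,000-fold range chosen per compound. Each plate was normalised to 0.1 % DMSO (100) and a positive kill control (0). Values are normalised signals, one per concentration.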

[20] = system: SK-BR-3; assay: as above
In short: as §2

[21] = system: HCC1937; assay: as above
In short: as §2

[22] = system: DU-4475; assay: as above
In short: as §2

[23] = system: MCF-10A; assay: as above
In short: as §2

[24] = system: MDA-MB-468; assay: as above
In short: as §2

[25] = system: Hs578T; assay: as above
In short: as §2

[26] = system: MDA-MB-453; assay: as above
In short: as §2

[27] = system: BT-549; assay: as above
In short: as §2

[28] = system: MDA-MB-231; assay: as above
In short: as §2

[29] = system: BT-474; assay: as above
In short: as §2

[30] = system: HDQ-P1; assay: as above
In short: as §2

[31] = system: CAL-51; assay: as above
In short: as §2

[32] = system: HCC1599; assay: as above
In short: as §2

[33] = system: MDA-MB-436; assay: as above
In short: as §2

[34] = system: CAL-148; assay: as above
In short: as §2

[35] = system: HCC1143; assay: as above
In short: as §2

[36] = system: MFM-223; assay: as above
In short: as §2

[37] = system: CAL-120; assay: as above
In short: as §2

Row | Compound | normalised viability [1] [%] | normalised viability [2] [%] | normalised viability [3] [%] | normalised viability [4] [%] | normalised viability [5] [%] | normalised viability [6] [%] | normalised viability [7] [%] | normalised viability [8] [%] | normalised viability [9] [%] | normalised viability [10] [%] | normalised viability [11] [%] | normalised viability [12] [%] | normalised viability [13] [%] | normalised viability [14] [%] | normalised viability [15] [%] | normalised viability [16] [%] | normalised viability [17] [%] | normalised viability [18] [%] | normalised response [19] [%] | normalised response [20] [%] | normalised response [21] [%] | normalised response [22] [%] | normalised response [23] [%] | normalised response [24] [%] | normalised response [25] [%] | normalised response [26] [%] | normalised response [27] [%] | normalised response [28] [%] | normalised response [29] [%] | normalised response [30] [%] | normalised response [31] [%] | normalised response [32] [%] | normalised response [33] [%] | normalised response [34] [%] | normalised response [35] [%] | normalised response [36] [%] | normalised response [37] [%]
1 | OC[C@H]1O[C@@H](n2cnc3c2N=CNC[C@H]3O)C[C@@H]1O [Pentostatin] (1 nM) | 99.5 | 86.8 | 81.8 | 102 | 105 | 109 | 110 | 91.7 | 96.6 | 82.4 | 108 | 89.3 | 114 | 99 | 118 | 96.9 | 93.2 | 114 | 94.8 | 108 | 100 | 103 | 107 | 101 | 98.4 | 107 | 93.8 | 98.8 | 98.7 | 100 | 111 | 121 | 83.4 | 104 | 103 | 99.8 | 96.7
2 | N#CC[C@H](C1CCCC1)n1cc(-c2ncnc3[nH]ccc23)cn1 [Ruxolitinib] (1 nM) | 114 | 101 | 102 | 104 | 96.6 | 102 | 101 | 89.9 | 82.5 | 98.2 | 85.7 | 89.4 | 101 | 96.9 | 94.5 | 101 | 98.8 | 106 | 101 | 83.5 | 92.8 | 91.9 | 82 | 101 | 95.8 | 94.4 | 102 | 102 | 96.8 | 93.5 | 120 | 93.5 | 86.7 | 92.8 | 93.1 | 90.1 | 93.8
3 | C=CC[C@@H]1/C=C(\C)C[C@H](C)C[C@H](OC)[C@H]2O[C@@](O)(C(=O)C(=O)N3CCCC[C@H]3C(=O)O[C@H](/C(C)=C/[C@@H]3CC[C@@H](O)[C@H](OC)C3)[C@H](C)[C@@H](O)CC1=O)[C@H](C)C[C@@H]2OC [Tacrolimus] (1 nM) | 98.6 | 98.2 | 102 | 98.5 | 110 | 106 | 107 | 109 | 102 | 71 | 114 | 105 | 99.3 | 119 | 110 | 109 | 116 | 111 | 97.8 | 109 | 98.8 | 102 | 106 | 98.7 | 99.1 | 110 | 96.6 | 99.3 | 101 | 118 | 93.1 | 103 | 103 | 103 | 93.9 | 98.5 | 98
4 | C=CCNC1=C2C[C@@H](C)C[C@H](OC)[C@H](O)[C@@H](C)/C=C(\C)[C@H](OC(N)=O)[C@@H](OC)/C=C\C=C(/C)C(=O)NC(=CC1=O)C2=O [Tanespimycin] (1 nM) | 92.6 | 93 | 86.4 | 118 | 103 | 101 | 108 | 113 | 98.2 | 97.3 | 105 | 115 | 94.7 | 110 | 115 | 87.4 | 90.8 | 77.1 | 107 | 96.8 | 94.7 | 99 | 99.1 | 107 | 104 | 104 | 105 | 98.9 | 91.9 | 99.4 | 104 | 102 | 86.8 | 92.6 | 95.8 | 94 | 92.5
5 | C[C@]1(c2nc3c(C(N)=O)cccc3[nH]2)CCCN1 [Veliparib] (1 nM) | 78.4 | 96.9 | 77.1 | 99 | 97.7 | 94.8 | 93.3 | 112 | 94.3 | 89.8 | 75.1 | 112 | 83.5 | 93.7 | 101 | 79.1 | 94.1 | 68.6 | 111 | 102 | 96.8 | 106 | 97 | 111 | 101 | 109 | 104 | 102 | 107 | 101 | 92.2 | 96.4 | 91.4 | 103 | 101 | 101 | 97.3
6 | CC[C@]1(O)C[C@@H]2CN(CCc3c([nH]c4ccccc34)[C@@](C(=O)OC)(c3cc4c(cc3OC)N(C)[C@H]3[C@@](O)(C(=O)OC)[C@H](OC(C)=O)[C@]5(CC)C=CCN6CC[C@]43[C@@H]65)C2)C1 [Vinblastine] (0.1 nM) | 85.8 | 85.8 | 97.1 | 104 | 98.8 | 103 | 98.5 | 96.6 | 83.1 | 87.9 | 102 | 114 | 90.7 | 103 | 92.5 | 78.6 | 90 | 82.1 | 97.4 | 100 | 93.9 | 101 | 101 | 98.8 | 99.5 | 103 | 102 | 94.9 | 96.2 | 99.4 | 103 | 106 | 95.8 | 96.6 | 99 | 93.1 | 95.9
7 | CS(=O)(=O)c1ccc(C(=O)Nc2ccc(Cl)c(-c3ccccn3)c2)c(Cl)c1 [Vismodegib] (1 nM) | 104 | 93.7 | 103 | 103 | 99.6 | 115 | 103 | 88.3 | 100 | 103 | 75.3 | 108 | 105 | 94.2 | 94.9 | 94.9 | 96 | 86.2 | 99.2 | 91.6 | 92.3 | 98.9 | 94 | 98.7 | 95.9 | 89.3 | 93.1 | 95.5 | 90.9 | 96.7 | 120 | 101 | 100 | 103 | 94.3 | 86.8 | 92.8

From the supplement of paper PMC4862054
